{"source": "patent US5041567A", "about": "“Antibacterial monic acid derivatives” (Beecham Group plc, priority 1982, dated 1991)", "key": {"[1]": {"tested_on": "Staph. aureus Oxford", "assay": "MIC against human bacteria in vitro", "assay_type": "cell-based", "conditions": "Staphylococcus aureus; Staph. aureus Oxford; 5% chocolated horse blood agar, 18 hours; read-out: MIC"}, "[2]": {"tested_on": "M. suipneumoniae HK(2)", "assay": "MIC against mycoplasma in vitro", "assay_type": "cell-based", "conditions": "Mesomycoplasma hyopneumoniae, 144 h; M. suipneumoniae HK(2); 6 days, 37° C.; read-out: MIC"}, "[3]": {"tested_on": "M. hyorhinis ATCC 23234", "assay": "MIC against mycoplasma in vitro", "assay_type": "cell-based", "conditions": "Mesomycoplasma hyorhinis, ATCC23234, 144 h; M. hyorhinis ATCC 23234; 6 days, 37° C.; read-out: MIC"}, "[4]": {"tested_on": "K. aerogenes A", "assay": "MIC against human bacteria in vitro", "assay_type": "cell-based", "conditions": "Klebsiella aerogenes; K. aerogenes A; 5% chocolated horse blood agar, 18 hours; read-out: MIC"}, "[5]": {"tested_on": "Strep. spp. 64/848-C", "assay": "MIC against human bacteria in vitro", "assay_type": "cell-based", "conditions": "Strep. spp. 64/848-C; 5% chocolated horse blood agar, 18 hours; read-out: MIC"}, "[6]": {"tested_on": "M. suipneumoniae ATCC 25095", "assay": "MIC against mycoplasma in vitro", "assay_type": "cell-based", "conditions": "Mesomycoplasma hyopneumoniae, ATCC25095, 144 h; M. suipneumoniae ATCC 25095; 6 days, 37° C.; read-out: MIC"}, "[7]": {"tested_on": "Strep. pneumoniae CN33", "assay": "MIC against human bacteria in vitro", "assay_type": "cell-based", "conditions": "Streptococcus pneumoniae; Strep. pneumoniae CN33; 5% chocolated horse blood agar, 18 hours; read-out: MIC"}, "[8]": {"tested_on": "M. suipneumoniae MS 16", "assay": "MIC against mycoplasma in vitro", "assay_type": "cell-based", "conditions": "Mesomycoplasma hyopneumoniae, MS16, 144 h"}, "[9]": {"tested_on": "Staph. aureus B4 (pen. resistant)", "assay": "MIC against veterinary bacteria in vitro", "conditions": "Staphylococcus aureus, 18 h", "description": "(§1) The activity of the compounds of the Examples against various veterinarily important bacteria, was assayed in vitro using two-fold serial dilutions in Diagnostic Sensitivity Test Agar inoculated with 10^4 organisms."}, "[10]": {"tested_on": "E. coli E1", "assay": "MIC against veterinary bacteria in vitro", "conditions": "Escherichia coli, E1, 18 h", "description": "as §1"}, "[11]": {"tested_on": "Bord. bronchiseptica B08", "assay": "MIC against veterinary bacteria in vitro", "conditions": "Bordetella bronchiseptica, B08, 18 h", "description": "as §1"}, "[12]": {"tested_on": "M. dispar NCTC 10125", "assay": "MIC against mycoplasma in vitro", "assay_type": "cell-based", "conditions": "144 h"}, "[13]": {"tested_on": "Strep. faecalis I", "assay": "MIC against human bacteria in vitro", "assay_type": "cell-based", "conditions": "Enterococcus faecalis; Strep. faecalis I; 5% chocolated horse blood agar, 18 hours; read-out: MIC"}, "[14]": {"tested_on": "M. suipneumoniae LABER", "assay": "MIC against mycoplasma in vitro", "assay_type": "cell-based", "conditions": "Mesomycoplasma hyopneumoniae, 144 h"}, "[15]": {"tested_on": "Staph. aureus W2827", "assay": "MIC against human bacteria in vitro", "assay_type": "cell-based", "conditions": "Staphylococcus aureus; Staph. aureus W2827; 5% chocolated horse blood agar, 18 hours; read-out: MIC"}, "[16]": {"tested_on": "Staph. aureus Russell", "assay": "MIC against human bacteria in vitro", "assay_type": "cell-based", "conditions": "Staphylococcus aureus; Staph. aureus Russell; 5% chocolated horse blood agar, 18 hours; read-out: MIC"}, "[17]": {"tested_on": "Neisseria catarrhalis 1502", "assay": "MIC against human bacteria in vitro", "assay_type": "cell-based", "conditions": "Neisseria catarrhalis 1502; 5% chocolated horse blood agar, 18 hours; read-out: MIC"}, "[18]": {"tested_on": "M. suipneumoniae J2206/183^b", "assay": "MIC against mycoplasma in vitro", "assay_type": "cell-based", "conditions": "Mesomycoplasma hyopneumoniae, 144 h; M. suipneumoniae J2206/183^b; 6 days, 37° C.; read-out: MIC"}, "[19]": {"tested_on": "M. suipneumoniae NCTC 10110", "assay": "MIC against mycoplasma in vitro", "assay_type": "cell-based", "conditions": "Mesomycoplasma hyopneumoniae, NCTC10110, 144 h; M. suipneumoniae NCTC 10110; 6 days, 37° C.; read-out: MIC"}, "[20]": {"tested_on": "S. typhimurium S18", "assay": "MIC against veterinary bacteria in vitro", "conditions": "Salmonella enterica, TYPHIMURIUM, 18 h", "description": "as §1"}, "[21]": {"tested_on": "M. hyosynoviae ATCC 25591", "assay": "MIC against mycoplasma in vitro", "assay_type": "cell-based", "conditions": "144 h; M. hyosynoviae ATCC 25591; 6 days, 37° C.; read-out: MIC"}, "[22]": {"tested_on": "Strep. pyogenes R80/421-A", "assay": "MIC against human bacteria in vitro", "assay_type": "cell-based", "conditions": "Streptococcus pyogenes; Strep. pyogenes R80/421-A; 5% chocolated horse blood agar, 18 hours; read-out: MIC"}, "[23]": {"tested_on": "M. hyorhinis ATCC 25021", "assay": "MIC against mycoplasma in vitro", "assay_type": "cell-based", "conditions": "Mesomycoplasma hyorhinis, ATCC25021, 144 h; M. hyorhinis ATCC 25021; 6 days, 37° C.; read-out: MIC"}, "[24]": {"tested_on": "Bacillus subtilis 6633", "assay": "MIC against human bacteria in vitro", "assay_type": "cell-based", "conditions": "Bacillus subtilis 6633; 5% chocolated horse blood agar, 18 hours; read-out: MIC"}, "[25]": {"tested_on": "Pasteurella multocida 1633", "assay": "MIC against human bacteria in vitro", "assay_type": "cell-based", "conditions": "Pasteurella multocida 1633; 5% chocolated horse blood agar, 18 hours; read-out: MIC"}, "[26]": {"tested_on": "P. mirabilis 889", "assay": "MIC against human bacteria in vitro", "assay_type": "cell-based", "conditions": "Proteus mirabilis; P. mirabilis 889; 5% chocolated horse blood agar, 18 hours; read-out: MIC"}, "[27]": {"tested_on": "Strep. uberis SPU1", "assay": "MIC against veterinary bacteria in vitro", "conditions": "Streptococcus uberis, SPU1, 18 h", "description": "as §1"}, "[28]": {"tested_on": "E. coli ESS", "assay": "MIC against human bacteria in vitro", "assay_type": "cell-based", "conditions": "Escherichia coli; E. coli ESS; 5% chocolated horse blood agar, 18 hours; read-out: MIC"}, "[29]": {"tested_on": "Past. multocida PA2", "assay": "MIC against veterinary bacteria in vitro", "conditions": "Pasteurella multocida, PA2, 18 h", "description": "as §1"}, "[30]": {"tested_on": "Staph. aureus 152 (pen. sens)", "assay": "MIC against veterinary bacteria in vitro", "conditions": "Staphylococcus aureus, 18 h", "description": "as §1"}, "[31]": {"tested_on": "M. pneumoniae ATCC 15492", "assay": "MIC against mycoplasma in vitro", "assay_type": "cell-based", "conditions": "Mycoplasmoides pneumoniae, ATCC15492, 144 h; M. pneumoniae ATCC 15492; 6 days, 37° C.; read-out: MIC"}, "[32]": {"tested_on": "M. suipneumoniae JF 435", "assay": "MIC against mycoplasma in vitro", "assay_type": "cell-based", "conditions": "Mesomycoplasma hyopneumoniae, JF435, 144 h; M. suipneumoniae JF 435; 6 days, 37° C.; read-out: MIC"}, "[33]": {"tested_on": "M. suipneumoniae TAM 6N", "assay": "MIC against mycoplasma in vitro", "assay_type": "cell-based", "conditions": "Mesomycoplasma hyopneumoniae, TAM6N, 144 h; M. suipneumoniae TAM 6N; 6 days, 37° C.; read-out: MIC"}, "[34]": {"tested_on": "Strep. suis (group D) SPS11", "assay": "MIC against veterinary bacteria in vitro", "conditions": "Streptococcus suis, 18 h", "description": "as §1"}}, "data": [{"smiles": "C/C(=C\\c1ncc(-c2ccc(C(=O)O)cc2)o1)C[C@@H]1OC[C@H](C[C@@H]2O[C@H]2[C@@H](C)[C@H](C)O)[C@@H](O)[C@H]1O", "note": "[Example 17, Sodium 4-[2-(1-normon-2-yl)-5-oxazolyl] benzoate A]", "values": [{"measurement": "MIC", "setting": "[1]", "result": 32, "unit": "µg/mL"}, {"measurement": "MIC", "setting": "[2]", "result": 10, "unit": "µg/mL"}, {"measurement": "MIC", "setting": "[3]", "result": 5, "unit": "µg/mL"}, {"measurement": "MIC", "setting": "[4]", "result": "> 64", "unit": "µg/mL"}, {"measurement": "MIC", "setting": "[5]", "result": 32, "unit": "µg/mL"}, {"measurement": "MIC", "setting": "[6]", "result": 5, "unit": "µg/mL"}, {"measurement": "MIC", "setting": "[7]", "result": 64, "unit": "µg/mL"}, {"measurement": "MIC", "setting": "[8]", "result": 2.5, "unit": "µg/mL"}, {"measurement": "MIC", "setting": "[9]", "result": 10, "unit": "µg/mL"}, {"measurement": "MIC", "setting": "[10]", "result": "> 80", "unit": "µg/mL"}, {"measurement": "MIC", "setting": "[11]", "result": "> 80", "unit": "µg/mL"}, {"measurement": "MIC", "setting": "[12]", "result": 2.5, "unit": "µg/mL"}, {"measurement": "MIC", "setting": "[13]", "result": "> 64", "unit": "µg/mL"}, {"measurement": "MIC", "setting": "[14]", "result": 2.5, "unit": "µg/mL"}, {"measurement": "MIC", "setting": "[15]", "result": "> 64", "unit": "µg/mL"}, {"measurement": "MIC", "setting": "[16]", "result": "> 64", "unit": "µg/mL"}, {"measurement": "MIC", "setting": "[17]", "result": 8, "unit": "µg/mL"}, {"measurement": "MIC", "setting": "[18]", "result": 5, "unit": "µg/mL"}, {"measurement": "MIC", "setting": "[19]", "result": "> 10", "unit": "µg/mL"}, {"measurement": "MIC", "setting": "[20]", "result": "> 80", "unit": "µg/mL"}, {"measurement": "MIC", "setting": "[21]", "result": "> 10", "unit": "µg/mL"}, {"measurement": "MIC", "setting": "[22]", "result": 4, "unit": "µg/mL"}, {"measurement": "MIC", "setting": "[23]", "result": 5, "unit": "µg/mL"}, {"measurement": "MIC", "setting": "[24]", "result": 32, "unit": "µg/mL"}, {"measurement": "MIC", "setting": "[25]", "result": 8, "unit": "µg/mL"}, {"measurement": "MIC", "setting": "[26]", "result": "> 64", "unit": "µg/mL"}, {"measurement": "MIC", "setting": "[27]", "result": 1.25, "unit": "µg/mL"}, {"measurement": "MIC", "setting": "[28]", "result": 16, "unit": "µg/mL"}, {"measurement": "MIC", "setting": "[29]", "result": 1.25, "unit": "µg/mL"}, {"measurement": "MIC", "setting": "[30]", "result": 10, "unit": "µg/mL"}, {"measurement": "MIC", "setting": "[31]", "result": "> 10", "unit": "µg/mL"}, {"measurement": "MIC", "setting": "[32]", "result": 5, "unit": "µg/mL"}, {"measurement": "MIC", "setting": "[33]", "result": 10, "unit": "µg/mL"}, {"measurement": "MIC", "setting": "[34]", "result": 40, "unit": "µg/mL"}]}]}
